Results as given in patent US10071095B2, “1,2,4-triazolo [4,3-A] pyridine derivatives and their use for the treatment of neurological and psychiatric disorders” (JANSSEN PHARMACEUTICALS, INC., priority 2009, dated 2018).

Biological target: T1, human mGluR2 receptor (Homo sapiens, UniProt Q14416)
T1 construct: expressed in transfected cells; host or cells: CHO cells
Assay: [35S]GTPγS binding assay, positive allosteric modulation (GTPγS-PAM) in presence of EC20 glutamate
Type: biochemical
Details: in presence of glutamate at EC20, average pEC50 if more experiments, ‡ means tested once; for EC50: read-out: GTPγS - hR2 PAM pEC50 (converted)
Description: [^35S]GTPγS Binding Assay
The [^35S]GTPγS binding assay is a functional membrane-based assay used to study G-protein coupled receptor (GPCR) function whereby incorporation of a non-hydrolysable form of GTP, [^35S]GTPγS (guanosine 5′-triphosphate, labelled with […] ^35S), is measured. The G-protein α subunit catalyzes the exchange of guanosine 5′-diphosphate (GDP) by guanosine triphosphate (GTP) and on activation of the GPCR by an agonist, [^35S]GTPγS, becomes incorporated and cannot be cleaved to continue the exchange cycle (Harper (1998) Current Protocols in Pharmacology 2.6.1-10, John Wiley & Sons, Inc.). […] Here we describe the use of the [^35S]GTPγS binding assay using membranes from cells transfected with the human mGluR2 receptor and adapted from Schaffhauser et al. ((2003) Molecular Pharmacology 4:798-810) for the detection of the positive allosteric modulation (PAM) properties of the compounds of this invention.
CHO-cells were cultured to pre-confluence and stimulated with 5 mM butyrate for 24 h, prior to washing in PBS, and then collected by scraping in homogenisation buffer (50 mM Tris-HCl buffer, pH 7.4, 4° C.). Cell lysates were homogenized briefly using an ultra-turrax homogenizer. The homogenate was centrifuged at 16,000 RPM (Sorvall RC-5C plus rotor SS-34) for 10 minutes and the supernatant discarded. The pellet was resuspended in 5 mM Tris-HCl, pH 7.4 and centrifuged again (18,000 RPM, 20 min, 4° C.). The final pellet was resuspended in 50 mM Tris-HCl, pH 7.4 and stored at −80° C. in appropriate aliquots before use. Protein concentration was determined by the Bradford method (Bio-Rad, USA) with bovine serum albumin as standard.
Measurement of mGluR2 positive allosteric modulatory activity of test compounds was performed as follows. Test compounds and glutamate were diluted in assay buffer containing 10 mM HEPES acid, 10 mM HEPES salt, pH 7.4, 100 mM NaCl, 3 mM MgCl2 and 10 μM GDP. Human mGlu2 receptor-containing membranes were thawed on ice and diluted in assay buffer supplemented with 14 μg/ml saponin. Membranes were pre-incubated with compound alone or together with a predefined (˜EC20) concentration of glutamate (PAM assay) for 30 min at 30° C. After addition of [^35S]GTPγS (f.c. 0.1 nM) microplates were shaken briefly and further incubated to allow [^35S]GTPγS incorporation on activation (30 minutes, 30° C.). Final assay mixtures contained 7 μg of membrane protein in 10 mM HEPES acid, 10 mM HEPES salt, pH 7.4, 100 mM NaCl, 3 mM MgCl2, 10 µM GDP and 10 μg/ml saponin. Total reaction volume was 200 μl. Reactions were terminated by rapid filtration through Unifilter-96 GF/B filter plates (Packard, Meriden, Conn.) using a 96-well Packard filtermate harvester. Filters were washed 6 times with ice-cold 10 mM NaH2PO4/10 mM Na2HPO4, pH 7.4. Filters were then air-dried, and 40 μl of liquid scintillation cocktail (Microscint-O) was added to each well. Membrane-bound radioactivity was counted in a Microplate Scintillation and Luminescence Counter from Packard.
The concentration-response curves of representative compounds of the present invention-obtained in the presence of EC20 of mGluR2 agonist glutamate to determine positive allosteric modulation (PAM)—were generated using the Lexis software interface (developed at J&J).

T1 sequence (Q14416 19-872): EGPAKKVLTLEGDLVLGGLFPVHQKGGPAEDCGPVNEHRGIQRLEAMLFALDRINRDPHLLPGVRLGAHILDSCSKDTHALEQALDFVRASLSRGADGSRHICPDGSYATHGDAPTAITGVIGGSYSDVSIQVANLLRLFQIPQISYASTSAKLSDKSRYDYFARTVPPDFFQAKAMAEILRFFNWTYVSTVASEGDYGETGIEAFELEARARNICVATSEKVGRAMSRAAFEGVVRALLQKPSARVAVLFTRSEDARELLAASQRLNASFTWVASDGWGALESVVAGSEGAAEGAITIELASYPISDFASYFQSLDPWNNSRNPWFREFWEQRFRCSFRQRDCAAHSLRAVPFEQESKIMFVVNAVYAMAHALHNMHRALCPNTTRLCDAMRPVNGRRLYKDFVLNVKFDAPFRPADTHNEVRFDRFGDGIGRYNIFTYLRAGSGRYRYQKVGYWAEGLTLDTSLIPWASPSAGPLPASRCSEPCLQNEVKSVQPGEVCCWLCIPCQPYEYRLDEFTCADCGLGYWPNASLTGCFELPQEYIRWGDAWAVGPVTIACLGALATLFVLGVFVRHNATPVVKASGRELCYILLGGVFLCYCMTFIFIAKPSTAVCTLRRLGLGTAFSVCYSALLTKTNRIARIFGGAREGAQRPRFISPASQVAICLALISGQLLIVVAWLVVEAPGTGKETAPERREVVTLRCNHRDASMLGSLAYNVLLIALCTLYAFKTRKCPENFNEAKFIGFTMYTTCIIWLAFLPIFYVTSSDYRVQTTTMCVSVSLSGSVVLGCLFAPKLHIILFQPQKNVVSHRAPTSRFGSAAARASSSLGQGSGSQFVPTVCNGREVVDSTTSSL

| SMILES | GTPγS - hR2 PAM pEC50 | EC50 |
| --- | --- | --- |
| Fc1ccccc1C1CCN(c2ccn3c(CC4CC4)nnc3c2C(F)(F)F)CC1 [compound 274] | 7.83‡ | – |
| COc1cccc(F)c1N1CCN(c2ccn3c(CC4CC4)nnc3c2C(F)(F)F)CC1 [compound 301] | 7.45‡ | – |
| CCCCc1nnc2c(C(F)(F)F)c(N3CC4C(C3)C4c3ccccc3)ccn12 (racemic) [compound 338] | 7.42‡ | – |
| Fc1ccc(C2CCN(c3ccn4c(CC5CC5)nnc4c3C(F)(F)F)CC2)c(F)c1 [compound 195] | 7.98 | – |
| N#Cc1c(N2CCC(c3ccccc3)(C(F)(F)F)CC2)ccn2c(CC3CC3)nnc12 [compound 120] | 6.31 | – |
| FC(F)(F)c1c(N2CC(c3ccccc3)C2)ccn2c(CC3CC3)nnc12 [compound 137] | 6.87 | – |
| FC(F)(F)c1c(N2CCC(NCc3ccccc3)CC2)ccn2c(CC3CC3)nnc12 [compound 230] | 5.61‡ | – |
| Fc1ccc(OC2CCN(c3ccn4c(CC5CC5)nnc4c3C(F)(F)F)CC2)c(F)c1 [compound 315] | 7.24 | – |
| N#Cc1c(N2CCC(c3ccccc3)CC2)ccn2c(C3CCC3)nnc12 [compound 14, 3-Cyclobutyl-7-(4-phenyl-1-piperidinyl)-1,2,4-triazolo[4,3-a]pyridine-8-carbonitrile] | – | 427 nM |
| FC(F)(F)C1CCC(N2CCN(c3ccn4c(CC5CC5)nnc4c3Cl)CC2)CC1 (stereo not drawn) [compound 223] | 6.03‡ | – |
| Clc1c(N2CCC(Oc3cccnc3)CC2)ccn2c(CC3CC3)nnc12 [compound 170] | 5.84‡ | – |
| N#Cc1c(N2CCC(c3ccccc3)CC2)ccn2c(COCc3ccccc3)nnc12 [compound 32] | 7.03 | – |
| COc1cccnc1N1CCN(c2ccn3c(CC4CC4)nnc3c2C(F)(F)F)CC1 [compound 92] | 6.87 | – |
| FC(F)(F)Cc1nnc2c(Cl)c(N3CCC(Oc4ccccn4)CC3)ccn12 [compound 114] | 6.33 | – |
| FC(F)(F)c1c(N2CCC(c3cccnc3)CC2)ccn2c(CC3CC3)nnc12 [compound 198] | 6.29‡ | – |
| CC1CN(c2ccn3c(CC4CC4)nnc3c2C(F)(F)F)CCC1c1ccccc1 (stereo not drawn) [compound 169] | 7.77‡ | – |

| SMILES | GTPγS - hR2 PAM pEC50 | EC50 |
| --- | --- | --- |
| FC(F)(F)c1c(N2CCC3(CC2)OC(F)(F)c2ccccc23)ccn2c(CC3CC3)nnc12 [compound 147, 1′-[3-cyclopropylmethyl-8-(trifluoromethyl)[1,2,4]triazolo[4,3-a]pyridin-7-yl]-3,3-difluoro-3H-spiro[benzo[c]furan-1,4′-piperidine]] | – | 245 nM |
| COc1cccc(F)c1C1CCN(c2ccn3c(CC4CC4)nnc3c2C#N)CC1 [compound 57] | 8.16‡ | – |
| CC1(C)CN(c2ccn3c(CC4CC4)nnc3c2C(F)(F)F)CCN1c1ccccc1 [compound 72] | 7.06 | – |
| Fc1ccc(N2CCC3(CCN(c4ccn5c(CC6CC6)nnc5c4C(F)(F)F)CC3)C2)c(F)c1 [compound 202] | 7.86‡ | – |
| CC(C)OCc1nnc2c(C(F)(F)F)c(N3CCN(c4ccccc4)CC3)ccn12 [compound 155] | 6.83‡ | – |
| Fc1ccc(CN2CCCC3(C2)CN(c2ccn4c(CC5CC5)nnc4c2C(F)(F)F)C3)c(F)c1 [compound 232] | 7.64 | – |
| FC(F)(F)Cc1nnc2c(C(F)(F)F)c(N3CCC(c4ccccc4)CC3)ccn12 [compound 38] | 7.74 | – |
| FC(F)(F)c1c(N2CCC3(CC2)COc2ncccc23)ccn2c(CC3CC3)nnc12 [compound 119, 1′-[3-cyclopropylmethyl-8-(trifluoromethyl)[1,2,4]triazolo[4,3-a]pyridin-7-yl]-spiro[furo[2,3-b]pyridine-3(2H),4′-piperidine]] | – | 1740 nM |
| FC(F)(F)Cc1nnc2c(Cl)c(N3CCN(c4ncccn4)CC3)ccn12 [compound 63] | 6.08 | – |
| FC1(c2ccccc2)CCN(c2ccn3c(CC4CC4)nnc3c2Cl)CC1 [compound 42] | 6.83 | – |
| CC1(c2ccccc2)CCN(c2ccn3c(CC4CC4)nnc3c2Cl)CC1 [compound 133] | 7.05 | – |
| CCCc1nnc2c(Cl)c(N3CCC4(CC3)OC(C)(C)c3ccccc34)ccn12 [compound 107] | 7.22 | – |
| CC(C)Cc1nnc2c(C#N)c(N3CCC(c4ccccc4)CC3)ccn12 [compound 74] | 6.85 | – |
| FC(F)(F)CCc1nnc2c(Cl)c(N3CCC(c4ccccc4)CC3)ccn12 [compound 71] | 6.65‡ | – |
| CC(C)OCc1nnc2c(C(F)(F)F)c(N3CCC(Oc4ccccn4)CC3)ccn12 [compound 150] | 6.97‡ | – |
| COc1cc(F)ccc1C1CCN(c2ccn3c(CC4CC4)nnc3c2C(F)(F)F)CC1 [compound 277] | 7.72 | – |

Results, then the compound that gave them:

| GTPγS - hR2 PAM pEC50 | EC50 | SMILES |
| --- | --- | --- |
| 6.61 | – | CCc1nnc2c(C#N)c(N3CCC(c4cccc(F)c4OC)CC3)ccn12 [compound 21] |
| 8.26 | – | CC1(c2ccccc2F)CCN(c2ccn3c(CC4CC4)nnc3c2C(F)(F)F)CC1 [compound 193] |
| 6.61 | – | COc1cnc(N2CCN(c3ccn4c(CC5CC5)nnc4c3C(F)(F)F)CC2)nc1 [compound 90] |
| 6.23 | – | N#Cc1c(N2CCN(C3CCC(C(F)(F)F)CC3)CC2)ccn2c(CC(F)(F)F)nnc12 (stereo not drawn) [compound 58] |
| 6.45 | – | CCCc1nnc2c(Cl)c(N3CCC4(CC3)OCc3c(F)cccc34)ccn12 [compound 106] |
| 6.16 | – | CCc1nnc2c(C#N)c(N3CCC(c4ccccc4)CC3)ccn12 [compound 10, 3-ethyl-7-(4-phenyl-1-piperidinyl)-1,2,4-triazolo[4,3-a]pyridine-8-carbonitrile] |
| 7.05 | – | FC(F)(F)c1c(N2CC3C(C2)C3c2ccccc2)ccn2c(CC3CC3)nnc12 (racemic) [compound 75] |
| 6.46 | – | Clc1c(N2CCN(C3COc4ccccc4C3)CC2)ccn2c(CC3CC3)nnc12 (stereo not drawn) [compound 164] |
| 6.5 | – | Fc1ccccc1NC1CN(c2ccn3c(CC4CC4)nnc3c2Cl)C1 [compound 190] |
| 8.41 | – | COc1cccc(F)c1C1CCN(c2ccn3c(CC(F)(F)F)nnc3c2Cl)CC1 [compound 65] |
| 6.44‡ | – | Fc1ccc(N2CCN(c3ccn4c(CC5CC5)nnc4c3C(F)(F)F)CC2)nc1 [compound 360] |
| 7.88‡ | – | FC(F)(F)c1c(N2C[C@@H]3[C@H](C2)[C@H]3c2ccccc2)ccn2c(CC3CC3)nnc12 [compound 266] |
| 6.24 | – | FC(F)(F)Cc1nnc2c(Cl)c(N3CCN(c4ccccc4)CC3)ccn12 [compound 101] |
| 6.98 | – | CCCc1nnc2c(C#N)c(N3CCC(c4cccc(F)c4OC)CC3)ccn12 [compound 23] |
| 6.91‡ | – | Cl.Fc1cccc2c1COC21CCN(c2ccn3c(CC4CC4)nnc3c2Cl)CC1 [compound 108] |
| 6.68 | – | CCOCc1nnc2c(C(F)(F)F)c(N3CCC(Oc4ccccn4)CC3)ccn12 [compound 132] |
| 8.06 | – | CCOCc1nnc2c(Cl)c(N3CCC(c4c(F)cc(F)cc4OC)CC3)ccn12 [compound 85] |
| 6.55 | – | FC1(c2ccccc2)CCN(c2ccn3c(CCC4CC4)nnc3c2Cl)CC1 [compound 140] |
| 6.41 | – | FC(F)(F)c1c(N2CCC(c3ccccc3)(N3CCOCC3)CC2)ccn2c(CC3CC3)nnc12 [compound 62] |
| 7.08 | – | Fc1ccccc1NC1CCN(c2ccn3c(CC4CC4)nnc3c2C(F)(F)F)CC1 [compound 183] |
| 7.69‡ | – | CCOCc1nnc2c(C(F)(F)F)c(N3CCC(c4ccccc4)CC3)ccn12 [compound 136] |
| 5.15‡ | – | CC(F)(F)c1nnc2c(C#N)c(N3CCC(c4ccccc4)CC3)ccn12 [compound 33] |
